Data as given in PMC11361161 (BMC Chemistry, 2024).
Like-named read-outs stand apart in the source and are kept apart here.

Target: human thymidylate synthase (hTS) (Homo sapiens, UniProt P04818)
Test: Thymidylate synthase inhibitory assay
Type: biochemical

Sequence of human thymidylate synthase (hTS) (P04818 whole entry): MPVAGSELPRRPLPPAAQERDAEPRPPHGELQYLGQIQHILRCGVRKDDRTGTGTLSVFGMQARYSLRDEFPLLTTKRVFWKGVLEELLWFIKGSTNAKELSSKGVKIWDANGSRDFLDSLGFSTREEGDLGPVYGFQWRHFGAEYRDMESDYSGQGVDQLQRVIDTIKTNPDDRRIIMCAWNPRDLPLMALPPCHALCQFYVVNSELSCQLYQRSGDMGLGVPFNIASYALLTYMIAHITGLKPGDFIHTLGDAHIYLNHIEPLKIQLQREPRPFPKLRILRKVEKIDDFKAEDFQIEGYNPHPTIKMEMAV

Row | IC50 | IC50 (read-out: In vitro thymidylate synthase (TS) IC50, 30 °C, pH 7.4, 30 nM hTS, absorbance at 340 nm, mean ± SEM, triplicate) | Molecule
1 | 20.5 ± 1.09 nM |  | COc1ccc(-c2cc(-c3ccc4ccccc4c3)c3c(=O)[nH]c(=O)[nH]c3n2)cc1 [Compound 1n, 7-(4-methoxyphenyl)-5-(naphthalen-2-yl)pyrido[2,3-d]pyrimidine-2,4(1 H,3 H)-dione]
2 |  | 13.5 ± 0.96 nM | 7-(4-methoxyphenyl)-1,3-dimethyl-5-(naphthalen-2-yl)pyrido[2,3-d]pyrimidine-2,4(1 H,3 H)-dione [Compound 2n]
3 | 20.5 ± 1.09 nM |  | COc1ccc(-c2cc(-c3ccc(N(C)C)cc3)c3c(=O)[nH]c(=O)[nH]c3n2)cc1 [Compound 1j, 5-(4-(dimethylamino)phenyl)-7-(4-methoxyphenyl)pyrido[2,3-d]pyrimidine-2,4(1 H,3 H)-dione]
4 | 13.5 ± 0.96 nM |  | COc1ccc(-c2cc(-c3ccc(N(C)C)cc3)c3c(=O)n(C)c(=O)n(C)c3n2)cc1 [Compound 2j, 5-(4-(dimethylamino)phenyl)-7-(4-methoxyphenyl)-1,3-dimethylpyrido[2,3-d]pyrimidine-2,4(1 H,3 H)-dione]
